Data as given in PubChem BioAssay AID1963958 (Molecular Pharmacology Branch, DTP, NCI, 2024).

System: MDA-MB-231 multicell spheroids, viability
Assay: Anticancer human tumor MDA-MB-231 cell line growth inhibition [PI3K];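 note: spheroids exposed to agents for seven days before reading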;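 for viability, T/C: percent of vehicle control luminescence with DMSO treated spheroids as 100%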
Conditions: for IC50: curve of first compound; for viability, T/C: stronger effect = lower value
Procedure, shortened: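 We assembled tumor spheroids that included a stromal compartment of HUVEC and MSCs, then exposed them to targeted agents alone and together with PI3K pathway inhibitors. Concentration series descended by half-log from clinically achievable Cmax levels. Viability served as the endpoint.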

[1] = second compound 0.00316 µM, first compound 0.0316 µM
[2] = second compound 0.00316 µM, first compound 0.1 µM
[3] = second compound 0.00316 µM, first compound 0.316 µM
[4] = second compound 0.00316 µM, first compound 1 µM
[5] = second compound 0.00316 µM, first compound 3.16 µM
[6] = second compound 0.00316 µM, first compound 10 µM
[7] = second compound 0.01 µM, first compound 0.0316 µM
[8] = second compound 0.01 µM, first compound 0.1 µM
[9] = second compound 0.01 µM, first compound 0.316 µM
[10] = second compound 0.01 µM, first compound 1 µM
[11] = second compound 0.01 µM, first compound 3.16 µM
[12] = second compound 0.01 µM, first compound 10 µM
[13] = second compound 0.0316 µM, first compound 0.0316 µM
[14] = second compound 0.0316 µM, first compound 0.1 µM
[15] = second compound 0.0316 µM, first compound 0.316 µM
[16] = second compound 0.0316 µM, first compound 1 µM
[17] = second compound 0.0316 µM, first compound 3.16 µM
[18] = second compound 0.0316 µM, first compound 10 µM
[19] = second compound 0.1 µM, first compound 0.0316 µM
[20] = second compound 0.1 µM, first compound 0.1 µM
[21] = second compound 0.1 µM, first compound 0.316 µM
[22] = second compound 0.1 µM, first compound 1 µM
[23] = second compound 0.1 µM, first compound 3.16 µM
[24] = second compound 0.1 µM, first compound 10 µM
[25] = second compound 0.316 µM, first compound 0.0316 µM
[26] = second compound 0.316 µM, first compound 0.1 µM
[27] = second compound 0.316 µM, first compound 0.316 µM
[28] = second compound 0.316 µM, first compound 1 µM
[29] = second compound 0.316 µM, first compound 3.16 µM
[30] = second compound 0.316 µM, first compound 10 µM
[31] = second compound 1 µM, first compound 0.0316 µM
[32] = second compound 1 µM, first compound 0.1 µM
[33] = second compound 1 µM, first compound 0.316 µM
[34] = second compound 1 µM, first compound 1 µM
[35] = second compound 1 µM, first compound 3.16 µM
[36] = second compound 1 µM, first compound 10 µM

## CC(C)NCC(C(=O)N1CCN(c2ncnc3c2C(C)CC3O)CC1)c1ccc(Cl)cc1 (stereo unspecified) + CC(Nc1ccc2c(c1)OCCn1cc(N3C(=O)OCC3C(F)F)nc1-2)C(N)=O
Second compound 0.00316 µM
  IC50: 7030 nM
Second compound 0.01 µM
  IC50: 6950 nM
Second compound 0.0316 µM
  IC50: 5100 nM
Second compound 0.1 µM
  IC50: 4310 nM
Second compound 0.316 µM
  IC50: 2690 nM
Second compound 1 µM
  IC50: 1920 nM
[1]
  viability, T/C: 95.8%
[2]
  viability, T/C: 94.6%
[3]
  viability, T/C: 99.3%
[4]
  viability, T/C: 86.6%
[5]
  viability, T/C: 67.1%
[6]
  viability, T/C: 42.5%
[7]
  viability, T/C: 87.5%
[8]
  viability, T/C: 93.1%
[9]
  viability, T/C: 81.8%
[10]
  viability, T/C: 81.6%
[11]
  viability, T/C: 60.1%
[12]
  viability, T/C: 45.2%
[13]
  viability, T/C: 86.6%
[14]
  viability, T/C: 84.1%
[15]
  viability, T/C: 72.7%
[16]
  viability, T/C: 71.4%
[17]
  viability, T/C: 56.8%
[18]
  viability, T/C: 39.9%
[19]
  viability, T/C: 71.6%
[20]
  viability, T/C: 72.8%
[21]
  viability, T/C: 67.7%
[22]
  viability, T/C: 63.5%
[23]
  viability, T/C: 54.5%
[24]
  viability, T/C: 38.2%
[25]
  viability, T/C: 66.2%
[26]
  viability, T/C: 63.7%
[27]
  viability, T/C: 59.7%
[28]
  viability, T/C: 61.6%
[29]
  viability, T/C: 47.2%
[30]
  viability, T/C: 30.8%
[31]
  viability, T/C: 64%
[32]
  viability, T/C: 61.3%
[33]
  viability, T/C: 58.9%
[34]
  viability, T/C: 52.9%
[35]
  viability, T/C: 48.3%
[36]
  viability, T/C: 34.9%

## C[C@@H](NC(=O)c1ncnc(N)c1Cl)c1ncc(C(=O)Nc2cc(C(F)(F)F)c(Cl)cn2)s1 + CC(Nc1ccc2c(c1)OCCn1cc(N3C(=O)OCC3C(F)F)nc1-2)C(N)=O
Second compound 0.00316 µM
  IC50: > 10000 nM
Second compound 0.01 µM
  IC50: > 10000 nM
Second compound 0.0316 µM
  IC50: 3490 nM
Second compound 0.1 µM
  IC50: 1360 nM
Second compound 0.316 µM
  IC50: 625 nM
Second compound 1 µM
  IC50: 337 nM
[1]
  viability, T/C: 119%
[2]
  viability, T/C: 93%
[3]
  viability, T/C: 86.7%
[4]
  viability, T/C: 86.9%
[5]
  viability, T/C: 73.9%
[6]
  viability, T/C: 50.6%
[7]
  viability, T/C: 111%
[8]
  viability, T/C: 94.2%
[9]
  viability, T/C: 81.7%
[10]
  viability, T/C: 72.1%
[11]
  viability, T/C: 68.2%
[12]
  viability, T/C: 49%
[13]
  viability, T/C: 91.3%
[14]
  viability, T/C: 75.1%
[15]
  viability, T/C: 66.1%
[16]
  viability, T/C: 62.7%
[17]
  viability, T/C: 52.3%
[18]
  viability, T/C: 40.8%
[19]
  viability, T/C: 83%
[20]
  viability, T/C: 66.4%
[21]
  viability, T/C: 58.8%
[22]
  viability, T/C: 54.1%
[23]
  viability, T/C: 48.3%
[24]
  viability, T/C: 32.6%
[25]
  viability, T/C: 77.8%
[26]
  viability, T/C: 66.3%
[27]
  viability, T/C: 54.8%
[28]
  viability, T/C: 45.6%
[29]
  viability, T/C: 41%
[30]
  viability, T/C: 33%
[31]
  viability, T/C: 67.4%
[32]
  viability, T/C: 55.4%
[33]
  viability, T/C: 49.5%
[34]
  viability, T/C: 44.8%
[35]
  viability, T/C: 38.4%
[36]
  viability, T/C: 28.8%

## Cn1ncnc1[C@H]1c2n[nH]c(=O)c3cc(F)cc(c23)N[C@@H]1c1ccc(F)cc1 + CC(Nc1ccc2c(c1)OCCn1cc(N3C(=O)OCC3C(F)F)nc1-2)C(N)=O
Second compound 0.00316 µM
  IC50: > 100 nM
Second compound 0.01 µM
  IC50: > 100 nM
Second compound 0.0316 µM
  IC50: > 100 nM
Second compound 0.1 µM
  IC50: 74 nM
Second compound 0.316 µM
  IC50: 47.1 nM
Second compound 1 µM
  IC50: 17.6 nM
Second compound 0.00316 µM, first compound 0.000316 µM
  viability, T/C: 99.1%
Second compound 0.00316 µM, first compound 0.001 µM
  viability, T/C: 93.9%
Second compound 0.00316 µM, first compound 0.00316 µM
  viability, T/C: 97.8%
Second compound 0.00316 µM, first compound 0.01 µM
  viability, T/C: 87.8%
[1]
  viability, T/C: 82.4%
[2]
  viability, T/C: 74.5%
Second compound 0.01 µM, first compound 0.000316 µM
  viability, T/C: 90.7%
Second compound 0.01 µM, first compound 0.001 µM
  viability, T/C: 95%
Second compound 0.01 µM, first compound 0.00316 µM
  viability, T/C: 81.8%
Second compound 0.01 µM, first compound 0.01 µM
  viability, T/C: 84.4%
[7]
  viability, T/C: 78.2%
[8]
  viability, T/C: 78.3%
Second compound 0.0316 µM, first compound 0.000316 µM
  viability, T/C: 78.1%
Second compound 0.0316 µM, first compound 0.001 µM
  viability, T/C: 86.7%
Second compound 0.0316 µM, first compound 0.00316 µM
  viability, T/C: 75.4%
Second compound 0.0316 µM, first compound 0.01 µM
  viability, T/C: 73.5%
[13]
  viability, T/C: 63.7%
[14]
  viability, T/C: 58.9%
Second compound 0.1 µM, first compound 0.000316 µM
  viability, T/C: 70.8%
Second compound 0.1 µM, first compound 0.001 µM
  viability, T/C: 69.7%
Second compound 0.1 µM, first compound 0.00316 µM
  viability, T/C: 65%
Second compound 0.1 µM, first compound 0.01 µM
  viability, T/C: 62.4%
[19]
  viability, T/C: 50.5%
[20]
  viability, T/C: 50.1%
Second compound 0.316 µM, first compound 0.000316 µM
  viability, T/C: 62.7%
Second compound 0.316 µM, first compound 0.001 µM
  viability, T/C: 64.3%
Second compound 0.316 µM, first compound 0.00316 µM
  viability, T/C: 59.4%
Second compound 0.316 µM, first compound 0.01 µM
  viability, T/C: 56.9%
[25]
  viability, T/C: 49.4%
[26]
  viability, T/C: 47.7%
Second compound 1 µM, first compound 0.000316 µM
  viability, T/C: 63.2%
Second compound 1 µM, first compound 0.001 µM
  viability, T/C: 58%
Second compound 1 µM, first compound 0.00316 µM
  viability, T/C: 53.9%
Second compound 1 µM, first compound 0.01 µM
  viability, T/C: 51.6%
[31]
  viability, T/C: 50%
[32]
  viability, T/C: 45.4%
